According to patent US8986696B2, “Trans-capsular administration of p38 map kinase inhibitors into orthopedic joints” (DePuy Mitek, Inc., priority 2007, dated 2015):

Assays:
[1] = tested on: injured cartilage explants, NO production; assay: drop tower design model: NO production; format: cell-based, bovine; conditions: cocktail of cytokines
Excerpt: The device comprises a vertical rail that guides a sliding weight from 0.1 kg to 3 kg directly onto a force transducer which is situated at the bottom of the device. A sphere-shaped 2 mm indenter resting on a specimen is located at the bottom of the vertical rail. The indenter is held by a stop screw. The specimen is rigidly attached to a tissue holder underneath the indenter, to avoid side movements, the specimen is rigidly attached to the tissue holder. In this manner, the force transducer transduces a force indirectly onto the specimen. Adjusting the weight of a mass and height from which the mass drops varies the magnitude of the intended impact. […]
In the first method, bovine or human PBMCs were freshly prepared using Ficoll gradient by Lampire Biological Laboratories, Inc. PBMCs in RPMI w/10% FCS at delivery were spun down at 1500 rpm for twenty minutes and the cell pellet was washed twice with 1×PBS to wash off the residual Ficoll. […] Each conditioned medium was assessed for levels of pro-inflammatory cytokines to ensure their secretion from PBMC. […]
Nitrate/Nitrite was measured using the Griess reaction (Green L. C. et al., “Analysis of Nitrate, Nitrite, and [15N]nitrate in Biological Fluids,” Anal. Biochem. 126: 131-138 (1982)) with a Nitrate/Nitrite Colorimetric Assay Kit (Cayman Chemicals), as described in Example III above.

COX2 = COX2 (Homo sapiens, UniProt P35354); assay: COX2 inhibition; format: biochemical
Sequence of COX2 (P35354 18-604): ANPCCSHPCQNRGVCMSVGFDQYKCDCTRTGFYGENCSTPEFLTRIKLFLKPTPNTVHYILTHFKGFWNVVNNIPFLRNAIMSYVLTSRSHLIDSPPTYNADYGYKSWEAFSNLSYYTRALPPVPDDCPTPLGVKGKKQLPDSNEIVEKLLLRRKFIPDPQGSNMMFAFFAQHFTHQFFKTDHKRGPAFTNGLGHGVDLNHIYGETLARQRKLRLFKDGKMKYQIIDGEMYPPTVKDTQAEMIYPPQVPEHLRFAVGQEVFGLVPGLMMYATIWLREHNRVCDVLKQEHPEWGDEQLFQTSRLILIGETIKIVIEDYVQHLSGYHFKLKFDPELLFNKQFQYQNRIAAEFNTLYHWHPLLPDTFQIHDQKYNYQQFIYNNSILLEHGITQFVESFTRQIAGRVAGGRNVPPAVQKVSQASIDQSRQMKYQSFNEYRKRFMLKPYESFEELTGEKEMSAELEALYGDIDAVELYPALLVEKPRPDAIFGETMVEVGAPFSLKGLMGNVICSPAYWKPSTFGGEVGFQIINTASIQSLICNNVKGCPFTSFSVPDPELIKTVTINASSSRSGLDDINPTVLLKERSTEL

SMILES | NO production, inhibition [1] | IC50 (COX2)
OCCC#Cc1nc(-c2ccc(F)cc2)c(-c2ccncc2)n1CCCc1ccccc1 [JNJ 3026582 (RWJ 67657), 4-[4-(4-fluorophenyl)-1-(3-phenylpropyl)-5-(4-pyridinyl)-1H-imidazol-2-yl]-3-butyn-1-ol] | dose-dependently inhibited | –
CC(=O)N1CCN(c2c(-c3ccncc3)c(-c3ccc(F)cc3)c(C#N)n2C)CC1 [JNJ 17089540 (RWJ 669307)] | – | > 10 µM
